Results on six compounds are retold here after US20110098314A1, “STATINS FOR THE TREATMENT OF OCULAR HYPERTENSION AND GLAUCOMA” (ALCON, INC., priority 2005, published 2011).

Each structure is given as a SMILES string.

Data set [1] concerns intraocular pressure. Put plainly: Acute IOP response in lasered (hypertensive) eyes of conscious cynomolgus monkeys. In kind it is in vivo, cynomolgus monkey. As to conditions: single topical ocular application of 300 μg; IOP at 1, 3 and 6 hours. Here is the method: Acute IOP Response in Lasered (Hypertensive) Eyes of Conscious Cynomolgus Monkeys.
Intraocular pressure (IOP) was determined with an Alcon Pneumatonometer after light corneal anesthesia with 0.1% proparacaine. Eyes were washed with saline after each measurement. After a baseline IOP measurement, the test compound was instilled in one 30 μL aliquot to the right eyes only of nine cynomolgus monkeys. The vehicle was instilled in the right eyes of six additional animals. Subsequent IOP measurements were taken at 1, 3, and 6 hours.

Data set [2] has as its system CTGF gene expression in cultured human trabecular meshwork (TM) cells. Put plainly: Inhibition of TGFβ2 stimulated CTGF gene expression (QPCR, CTGF/18S cDNA). In kind it is cell-based. The protocol:
FIGS. 1-3 are graphs setting forth the effects of statins on basal and TGFβ2-induced CTGF gene expression in cultured human trabecular meshwork cells.
The effectiveness of statins on CTGF gene expression in cultured human trabecular meshwork (TM) cells was studied. In these experiments, the CTGF/18S cDNA levels were measured by quantitative reverse-transcription PCR (QPCR) and compared.

Data set [3] deals with GTM-3 cells. The data set is described as follows: GTM-3 cell viability (neutral red uptake). The data set is classed as cell-based, human. Conditions: 24 h, FIG. 5. The protocol: (§1) FIG. 5 depicts bar graphs showing the effect of lovastatin on GTM-3 cell fibronectin secretion and viability. Transformed human trabecular meshwork (GTM-3) cells were incubated in the presence or absence of test agents in serum-free DMEM media for 24 h (37° C., 5% CO2). Cell supernatants were then assayed for fibronectin content by ELISA and cell monolayers were assayed for viability by neutral red uptake.
(§2) The effect of lovastatin on both basal (vehicle) and stimulated (TGF32) GTM-3 (a transformed human TM cell strain) secretion of fibronectin was tested. GTM-3 cells were incubated in the presence or absence of test agents in serum-free media for 24 h (37° C., 5% CO2), then changes in secreted fibronectin levels were determined by ELISA of cell supernatants. Neutral red uptake assays were performed on the remaining cell monolayers, in order to determine the effect of test agents on GTM-3 cell viability. […] Thus, by virtue of the ability to reduce the excessive accumulation of extracellular matrix (e.g. fibronectin), statins are useful in the treatment of glaucoma and to control or lower IOP.

For data set [4], the system named is intraocular pressure. The data set is described as follows: IOP response in lasered (hypertensive) eyes of conscious cynomolgus monkeys following repeated dosing. The data set is classed as in vivo, cynomolgus monkey. Here is the method: Response in Lasered (Hypertensive) Eyes of Conscious Cynomolgus Monkeys Following Repeated Dosing.
In a further study, the intraocular pressure-lowering efficacy of lovastatin was measured in conscious ocular hypertensive monkeys using a five-dose, three-day study design. The test item was administered in one 30 μL aliquot to the lasered (unilateral laser trabeculoplasty) eye of eight animals. The vehicle was instilled in the lasered eyes of six additional animals as a control. Doses 1, 3, and 5 were instilled at 0900 hours on three consecutive days; doses 2 and 4 at 1630 hours on days 1 and 2. IOP was measured at 1, 3 and 6 hours after doses 1 and 5. IOP was also measured at 16 hours after dose 4. The percent change from time 0 baseline was determined for each animal for every IOP measurement.
There was an average reduction in IOP of 12.5% in the control group. In a subsequent study, wherein nine doses of lovastatin were administered over a five day period, IOP was reduced by up to 7.4%.

Data set [5] relates to intraocular pressure. As to conditions: administered orally for at least one year; cited from earlier work.
Data set [6] deals with fibronectin secretion by GTM-3 cells. Put plainly: Inhibition of TM fibronectin secretion (ELISA of cell supernatants). Conditions: 24 h, FIG. 5. The data set is classed as cell-based, human. Here is the method:
as §1, §2

The nature of data set [7]: Penetration of the cornea following topical ocular administration. In kind it is in vivo. From the text:
The use of topical ocular administration is therefore strongly preferred in the present invention.

[8] abbreviates: 1 hour after fifth topical ocular instillation of 300 μg.
Where [9] appears, read: 3 hours after fifth topical ocular instillation of 300 μg.
[10] abbreviates: 6 hours after fifth topical ocular instillation of 300 μg.

For `CC(C)n1c(/C=C/[C@@H](O)C[C@@H](O)CC(=O)O)c(-c2ccc(F)cc2)c2ccccc21` (relative stereo) [fluvastatin, (3R,5S,6E)-rel-7-[3-(4-fluorophenyl)-1-(1-methylethyl)-1H-indol-2-yl]-3,5-dihydroxy-6-heptenoic acid], the “IOP lowering after single topical ocular application” value in data set [1] was “did not significantly lower IOP”.
What is called IC50 is the concentration needed to halve the response being measured. The low end stands for greater potency in that assay, the high end for weaker potency in that assay. Regarding `CC[C@H](C)C(=O)O[C@H]1C[C@@H](C)C=C2C=C[C@H](C)[C@H](CC[C@@H]3C[C@@H](O)CC(=O)O3)[C@H]21` [lovastatin, 2(S)-2-methyl-butanoic acid (1S,3R,7S,8S,8aR)-1,2,3,7,8,8a-hexahydro-3,7-dimethyl-8-[2-[(2R,4R)-tetrahydro-4-hydroxy-6-oxo-2H-pyran-2-yl]ethyl]-1-naphthalenyl ester], the “CTGF gene expression by cultured human TM cells” value (from here on “CTGF gene expression”) in data set [2] is “significantly reduce”. The compound further gave an IC50 in data set [2] (dose-dependent, FIG. 3) of 75 nM. Also, the GTM-3 cell viability result in data set [3] is listed as “without affecting cell viability”. For the same compound, in data set [1], the “IOP lowering after single topical ocular application” value is given as “did not significantly lower IOP”. The entries for the “average IOP lowering” value in data set [4] (setting [8]), in data set [4] (setting [9]) and in data set [4] (setting [10]) were 8.3 mmHg, 8.1 mmHg and 9.5 mmHg, respectively. Also, the “average IOP lowering, percent change from baseline” value worked out at 22.8% in data set [4] (setting [8]), 21.5% in data set [4] (setting [9]) and 25.5% in data set [4] (setting [10]). The IOP reduction entry in data set [4] (subsequent study, nine doses over a five day period) is reported as “up to 7.4%”. Moreover, the “change in intraocular pressure in patients” value in data set [5] is “no clinically significant change in intraocular pressure”. Moreover, the TGFβ2-stimulated fibronectin secretion result in data set [6] (serum-free media) is on record as “suppressed”. In data set [6] (vehicle (basal)), the basal fibronectin secretion result is reported as “suppression”.
With `CCC(C)(C)C(=O)O[C@H]1C[C@@H](C)C=C2C=C[C@H](C)[C@H](CC[C@@H]3C[C@@H](O)CC(=O)O3)[C@H]21` [simvastatin, 2,2-dimethyl-butanoic acid (1S,3R,7S,8S,8aR)-1,2,3,7,8,8a-hexahydro-3,7-dimethyl-8-[2-[(2R,4R)-tetrahydro-4-hydroxy-6-oxo-2H-pyran-2-yl]ethyl]-1-naphthalenyl ester], the “CTGF gene expression” value in data set [2] is recorded as “significantly reduce”. Further, the “change in intraocular pressure in patients” value in data set [5] was “no clinically significant change in intraocular pressure”.
`CC(C)c1c(C(=O)Nc2ccccc2)c(-c2ccccc2)c(-c2ccc(F)cc2)n1CC[C@@H](O)C[C@@H](O)CC(=O)O` (relative stereo) [atorvastatin, (βR,δR)-2-(4-fluorophenyl)-β,δ-dihydroxy-5-(1-methylethyl)-3-phenyl-4-[(phenylamino)carbonyl]-1H-Pyrrole-1-heptanoic acid]: in data set [7], the “ability to reach intraocular tissues via penetration of the cornea” value is “do not readily penetrate the cornea”. Moreover, in data set [1], the “IOP lowering after single topical ocular application” value is “did not significantly lower IOP”.
With `CC[C@H](C)C(=O)O[C@H]1C[C@H](O)C=C2C=C[C@H](C)[C@H](CC[C@@H](O)CC(O)CC(=O)O)[C@H]21` (stereo in doubt) [pravastatin, (βR,δR,1S,2S,6S,8S,8aR)-1,2,6,7,8,8a-hexahydro-β,δ,6-trihydroxy-2-methyl-8-[(2S)-2-methyl-1-oxobutoxy]-1-naphthaleneheptanoic acid], the “ability to reach intraocular tissues via penetration of the cornea” value in data set [7] was “able to reach intraocular tissues via penetration of the cornea”. Further, the “IOP lowering after single topical ocular application” value in data set [1] is reported as “did not significantly lower IOP”.
`CC[C@H](C)C(=O)O[C@H]1CCC=C2C=C[C@H](C)[C@H](CC[C@@H]3C[C@@H](O)CC(=O)O3)[C@H]21` [mevastatin, (2S)-2-methyl butanoic acid (1S,7S,8S,8aR)-1,2,3,7,8,8a-hexahydro-7-methyl-8-[2-[(2R,4R)-tetrahydro-4-hydroxy-6-oxo-2H-pyran-2-yl]ethyl]-1-naphthalenyl ester]: in data set [2], the “CTGF gene expression” value is listed as “significantly reduce”.
